Measured values as given in US20070292888A1, “Methods for Measuring Enzyme Activities in Cells, Blood, Tumors and Tissues” (GEN-PATH PHARMACEUTICALS, INC., priority 2004, published 2007).

Target: T1, alpha-ketoglutarate dehydrogenase (kGDH) (Mus musculus, UniProt Q60597)
T1 construct: from tissue; host or cells: mouse brain, blood, tumor and other organs (crude lysates)
T1 sequence (Q60597 41-1023): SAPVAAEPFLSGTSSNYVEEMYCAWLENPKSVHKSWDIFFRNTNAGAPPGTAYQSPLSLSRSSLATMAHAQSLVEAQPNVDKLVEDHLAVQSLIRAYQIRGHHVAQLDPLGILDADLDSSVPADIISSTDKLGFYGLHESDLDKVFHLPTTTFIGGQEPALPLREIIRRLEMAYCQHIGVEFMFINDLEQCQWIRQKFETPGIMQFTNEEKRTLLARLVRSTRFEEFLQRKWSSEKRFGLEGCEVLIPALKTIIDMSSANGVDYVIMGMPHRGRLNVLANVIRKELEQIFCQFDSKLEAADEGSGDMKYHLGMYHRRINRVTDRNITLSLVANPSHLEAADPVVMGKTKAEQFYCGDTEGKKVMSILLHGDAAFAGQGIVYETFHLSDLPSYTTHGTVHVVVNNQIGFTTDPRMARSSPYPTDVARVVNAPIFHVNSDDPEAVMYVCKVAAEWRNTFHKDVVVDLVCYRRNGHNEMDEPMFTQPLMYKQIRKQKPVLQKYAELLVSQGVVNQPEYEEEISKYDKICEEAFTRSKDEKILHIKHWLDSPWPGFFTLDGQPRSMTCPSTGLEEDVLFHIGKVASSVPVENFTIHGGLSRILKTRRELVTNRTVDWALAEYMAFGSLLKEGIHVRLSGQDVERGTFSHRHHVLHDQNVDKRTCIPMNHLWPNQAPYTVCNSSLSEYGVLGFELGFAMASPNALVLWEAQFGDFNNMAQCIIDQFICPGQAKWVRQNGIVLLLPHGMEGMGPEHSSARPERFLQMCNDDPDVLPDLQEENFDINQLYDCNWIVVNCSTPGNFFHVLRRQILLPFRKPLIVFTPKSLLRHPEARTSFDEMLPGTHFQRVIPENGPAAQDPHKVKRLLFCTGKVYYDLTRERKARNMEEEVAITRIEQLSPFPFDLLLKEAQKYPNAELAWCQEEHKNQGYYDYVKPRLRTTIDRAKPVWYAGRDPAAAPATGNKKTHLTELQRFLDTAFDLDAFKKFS
T1 sequence (Q9D2G2 69-454 partner): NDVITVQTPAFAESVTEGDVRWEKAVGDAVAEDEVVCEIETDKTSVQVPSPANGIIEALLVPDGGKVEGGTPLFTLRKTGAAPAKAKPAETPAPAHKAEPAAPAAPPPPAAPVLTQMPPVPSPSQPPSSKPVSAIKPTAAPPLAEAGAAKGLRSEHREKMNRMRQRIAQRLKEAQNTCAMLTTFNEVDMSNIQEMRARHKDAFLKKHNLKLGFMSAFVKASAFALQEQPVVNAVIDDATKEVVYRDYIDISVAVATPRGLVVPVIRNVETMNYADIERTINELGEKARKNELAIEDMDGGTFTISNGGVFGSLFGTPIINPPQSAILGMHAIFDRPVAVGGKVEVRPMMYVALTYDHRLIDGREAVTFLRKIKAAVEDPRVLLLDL
T1 sequence (O08749 36-509 partner): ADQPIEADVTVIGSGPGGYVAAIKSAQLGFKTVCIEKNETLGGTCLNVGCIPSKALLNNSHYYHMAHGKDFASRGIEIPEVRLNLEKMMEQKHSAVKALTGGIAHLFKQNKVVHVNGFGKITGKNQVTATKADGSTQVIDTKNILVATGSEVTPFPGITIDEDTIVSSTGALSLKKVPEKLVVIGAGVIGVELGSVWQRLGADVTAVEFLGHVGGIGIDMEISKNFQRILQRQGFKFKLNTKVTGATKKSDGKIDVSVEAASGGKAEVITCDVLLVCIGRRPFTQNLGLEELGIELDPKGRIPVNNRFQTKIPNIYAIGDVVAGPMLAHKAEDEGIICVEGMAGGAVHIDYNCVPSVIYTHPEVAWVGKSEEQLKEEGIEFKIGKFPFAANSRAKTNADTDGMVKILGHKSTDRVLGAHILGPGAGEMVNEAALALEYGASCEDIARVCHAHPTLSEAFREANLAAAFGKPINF
Assay: alpha-ketoglutarate dehydrogenase activity in tissues of treated mice (fluorescence NADH assay)
Type: in vivo
Protocol: Blood samples from mice were taken (40 μl whole blood) serially or from mice sacrificed at the end of the experiment. Tissues, such as tumors (e.g. from implantation, xenograft, or arising spontaneously), brain, heart, kidney, liver, lung and spleen were taken and flash frozen in liquid nitrogen or on dry ice and stored in −80° C. until time of assay. Four volumes of cold lysis buffer (20 mM HEPES, pH 7.5, 1 mM EDTA, 0.2 g/l Triton X-100® and 0.2 g/L sodium deoxycholate, supplemented with 1 mM DTT and 1 mM PMSF just before use) were added to the blood, which was dissolved by vortexing. For blood that was frozen before coagulation, a clear lysate was obtained. If coagulation occurred, homogenization was used as described below for tissue. Tissues were suspended in lysis buffer in 10 ml round bottom tubes and homogenized with PowerGen 125® (Fisher Scientific) for four seconds at highest power while submerged in an ice-water bath. This step was repeated after a few seconds, as necessary. […]
Each reaction was monitored for the appearance of NADH (for transketolase, alpha-ketoglutarate dehydrogenase, pyruvate dehydrogenase) or NADPH (for glucose-6-phosphate dehydrogenase) at room temperature in a fluorescent plate reader with excitation at 340 nm and emission at 470 nm in kinetic mode. The velocity was determined by the slope of the initial linear range of increasing fluorescence, expressed in fluorescent units (FU)/min. The protein concentration in the lysate was determined using Bradford assays (BioRad) with BSA as a standard. […]
To investigate the amount of in vivo enzyme inhibition following treatment with an inhibitor, we administered a single dose of N3PT (100 mg/kg, intraperitoneally [i.p.]) and blood, spleen and brain samples were collected at various times from 0-120 hours after dosing. The enzymatic activities were determined as described in Example 1. TK activity was measured in blood and spleen. Because TK activity in the brain is below the detection limit of the assay, kGDH activity was measured in brain samples. […]

Compound: Cc1ccc(C[n+]2csc(CCO)c2C)c(N)n1 [N3PT, 3-[(2-amino-6-methyl-3-pyridinyl)methyl]-5-(2-hydroxyethyl)-4-methyl thiazolium]
- kGDH activity in blood (11 days i.p. twice per day, blood): obliterated
- brain penetration (after a single dose 100 mg/kg i.p., inferred from brain kGDH activity): little or no significant brain penetration
- inhibition of brain kGDH activity (single dose 100 mg/kg i.p., 0-120 hours): No significant inhibition
